Measured values from PubChem BioAssay AID330 (DTP/NCI, 2004).
Where “and” joins values, the source holds several entries; their conditions need not be identical. Identical values can stand only once. Inconclusive results and toxic doses are left out. Rule for the calls: active = survival T/C of 150% or more; inactive = T/C below 125% in these data.

Tested on: P388 leukemia ip, CD2F1 mice, survival T/C
Test: NCI In Vivo Anticancer Drug Screen. Data for tumor model P388 Leukemia (intraperitoneal) in CD2F1 (CDF1) mice
Conditions: endpoint: median survival time, higher = longer survival
Procedure, shortened: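 Mice carrying the transplanted tumor received test compound or vehicle. Survival was recorded in each group, and the value is the treated-group measurement divided by that of the vehicle-treated control group.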

[1] = dose: 60.0 mg/kg/injection, schedule: Q01DX005 (ip), vehicle: saline with Tween-80
[2] = dose: 120.0 mg/kg/injection, schedule: Q01DX005 (ip), vehicle: saline with Tween-80
[3] = dose: 240.0 mg/kg/injection, schedule: Q01DX005 (ip), vehicle: saline with Tween-80
[4] = dose: 50.0 mg/kg/injection, schedule: Q01DX009 (ip), vehicle: Klucel (hydroxypropylcellulose) (HPC)
[5] = dose: 100.0 mg/kg/injection, schedule: Q01DX009 (ip), vehicle: Klucel (hydroxypropylcellulose) (HPC)
[6] = dose: 200.0 mg/kg/injection, schedule: Q01DX009 (ip), vehicle: Klucel (hydroxypropylcellulose) (HPC)
[7] = dose: 50.0 mg/kg/injection, schedule: Q01DX005 (ip), vehicle: Klucel (hydroxypropylcellulose) (HPC)
[8] = dose: 100.0 mg/kg/injection, schedule: Q01DX005 (ip), vehicle: Klucel (hydroxypropylcellulose) (HPC)
[9] = dose: 200.0 mg/kg/injection, schedule: Q01DX005 (ip), vehicle: Klucel (hydroxypropylcellulose) (HPC)
[10] = dose: 50.0 mg/kg/injection, schedule: Q01DX009 (ip), vehicle: saline with Tween-80
[11] = dose: 100.0 mg/kg/injection, schedule: Q01DX009 (ip), vehicle: saline with Tween-80
[12] = dose: 50.0 mg/kg/injection, schedule: Q01DX005 (ip), vehicle: saline with Tween-80
[13] = dose: 25.0 mg/kg/injection, schedule: Q01DX009 (ip), vehicle: saline with Tween-80

Measured: T/C

COC(=O)N1c2ccccc2C(c2ccccc2)=NC1(C)C#N (stereo unspecified)
inactive: [1] 98 % of control | [2] 99 % of control | [3] 100 % of control

O=P1(c2ccccc2)OCC2=C(c3ccccc3)CC2=C1c1ccccc1 (stereo unspecified)
inactive: [4] 105 % of control | [5] 103 % of control | [6] 105 % of control

O=C1NC(=O)C2(N1)C1CCCCC2C(c2ccccc2)NC1c1ccccc1 (stereo unspecified)
inactive: dose: 100.0 mg/kg/injection, schedule: Q01DX001 (ip), vehicle: saline with Tween-80 100 % of control | dose: 200.0 mg/kg/injection, schedule: Q01DX001 (ip), vehicle: saline with Tween-80 98 % of control | dose: 400.0 mg/kg/injection, schedule: Q01DX001 (ip), vehicle: saline with Tween-80 96 % of control

CNCc1c(O)ccc2c(-c3ccccc3)cc(=O)oc12
inactive: dose: 100.0 mg/kg/injection, schedule: Q04DX002 (ip), vehicle: saline with Tween-80 100 % of control | dose: 200.0 mg/kg/injection, schedule: Q04DX002 (ip), vehicle: saline with Tween-80 101 % of control

CCOC(=O)c1c(NC(=O)c2ccccc2)sc2c(=O)oc(-c3ccccc3)nc12
inactive: [7] 97 % of control | [8] 90 % of control | [9] 90 % of control

Cc1ccc(Cl)c(NC(=S)NCc2cccnc2)c1
inactive: [4] 97 % of control | [5] 103 % of control | [6] 108 % of control

CCOC1(C)OC2OC(COCc3ccccc3)C(OCc3ccccc3)C(OCc3ccccc3)C2O1 (stereo unspecified)
inactive: dose: 12.5 mg/kg/injection, schedule: Q01DX009 (ip), vehicle: other 99 % of control | dose: 25.0 mg/kg/injection, schedule: Q01DX009 (ip), vehicle: other 100 % of control | dose: 50.0 mg/kg/injection, schedule: Q01DX009 (ip), vehicle: other 100 % of control | dose: 100.0 mg/kg/injection, schedule: Q01DX009 (ip), vehicle: other 89 % of control | dose: 200.0 mg/kg/injection, schedule: Q01DX009 (ip), vehicle: other 98 % of control

CCOC(=O)CSc1nnc(-c2cc(OC)c(OCC)c(OC)c2)o1
inactive: dose: 62.5 mg/kg/injection, schedule: Q01DX001 (ip), vehicle: Klucel (hydroxypropylcellulose) (HPC) 102 % of control | dose: 125.0 mg/kg/injection, schedule: Q01DX001 (ip), vehicle: Klucel (hydroxypropylcellulose) (HPC) 102 % of control | dose: 250.0 mg/kg/injection, schedule: Q01DX001 (ip), vehicle: Klucel (hydroxypropylcellulose) (HPC) 100 % of control

O=C(Nc1nc2c(Cl)cccc2s1)C(F)(F)C(F)(F)C(F)(F)F (tested in a mixture with another compound)
inactive: [10] 114 % of control | [11] 101 % of control

O=c1c2ccccc2nc(-c2ccc(Cl)cc2)n1O
inactive: [12] 92 % of control | dose: 100.0 mg/kg/injection, schedule: Q01DX005 (ip), vehicle: saline with Tween-80 88 % of control

CCCCC(O)(c1ccc2nc(NC(=O)OC)[nH]c2c1)c1cccs1 (stereo unspecified)
inactive: dose: 25.0 mg/kg/injection, schedule: Q01DX005 (ip), vehicle: other 110 % of control | dose: 50.0 mg/kg/injection, schedule: Q01DX005 (ip), vehicle: other 107 % of control | dose: 100.0 mg/kg/injection, schedule: Q01DX005 (ip), vehicle: other 110 % of control | dose: 200.0 mg/kg/injection, schedule: Q01DX005 (ip), vehicle: other 104 % of control

CC(C)(C)CC(C)(C)NC(=S)NC1C2CC3CC(C2)CC1C3 (stereo unspecified)
inactive: [4] 89 % of control | [5] 90 % of control

COc1cccc2c1C(=O)c1c(OC)c(CSC(=N)N)cc(OC)c1C2=O
inactive: dose: 2.0 mg/kg/injection, schedule: Q01DX009 (ip), vehicle: water 99 % of control | dose: 4.0 mg/kg/injection, schedule: Q01DX009 (ip), vehicle: water 104 % of control | dose: 8.0 mg/kg/injection, schedule: Q01DX009 (ip), vehicle: water 104 % of control | dose: 16.0 mg/kg/injection, schedule: Q01DX009 (ip), vehicle: water 117 % of control | dose: 32.0 mg/kg/injection, schedule: Q01DX009 (ip), vehicle: water 121 % of control | dose: 64.0 mg/kg/injection, schedule: Q01DX009 (ip), vehicle: water 111 % of control

O=C1c2cc(Cl)ccc2-c2c(Cl)cc(Cl)cc21
inactive: dose: 12.5 mg/kg/injection, schedule: Q01DX009 (ip), vehicle: saline with Tween-80 87 % of control | [13] 100 % of control | [10] 100 % of control

Clc1ccc(Nc2nnc(-c3ccc4c(c3)OCO4)o2)cc1
inactive: [7] 93 % of control | [8] 101 % of control | [9] 93 % of control

CCC1(c2ccnc3ccccc23)C(=O)OC(C)(C)OC1=O
inactive: dose: 50.0 mg/kg/injection, schedule: Q01DX009 (ip), vehicle: distilled water + alcohol 99 % of control | dose: 100.0 mg/kg/injection, schedule: Q01DX009 (ip), vehicle: distilled water + alcohol 98 % of control | dose: 200.0 mg/kg/injection, schedule: Q01DX009 (ip), vehicle: distilled water + alcohol 87 % of control

O=C1CN(Cc2ccc(Cl)cc2)CC(=O)N2CCCN12
inactive: dose: 12.5 mg/kg/injection, schedule: Q01DX005 (ip), vehicle: saline with Tween-80 96 % of control | dose: 25.0 mg/kg/injection, schedule: Q01DX005 (ip), vehicle: saline with Tween-80 100 % of control | [12] 100 % of control

CCOc1ccccc1NC(=O)NCC(=O)NNC(=O)Nc1ccc(Cl)c([N+](=O)[O-])c1
inactive: [1] 93 % of control | [2] 98 % of control | [3] 92 % of control

OCC1OC(c2ccc(O)cc2O)C(O)C1O (stereo unspecified)
inactive: dose: 50.0 mg/kg/injection, schedule: Q01DX009 (ip), vehicle: saline 102 % of control | dose: 100.0 mg/kg/injection, schedule: Q01DX009 (ip), vehicle: saline 96 % of control | dose: 100.0 mg/kg/injection, schedule: Q04DX003 (ip), vehicle: saline 95 % of control | dose: 200.0 mg/kg/injection, schedule: Q01DX009 (ip), vehicle: saline 105 % of control | dose: 200.0 mg/kg/injection, schedule: Q04DX003 (ip), vehicle: saline 98 % of control | dose: 400.0 mg/kg/injection, schedule: Q04DX003 (ip), vehicle: saline 95 % of control

CN(C)N1Cc2ccccc2NC1=O
inactive: [7] 102 % of control | [8] 96 % of control | [9] 110 % of control

Nc1nc2c(c(=O)[nH]1)NC(CCNc1ccc(C(=O)NC(CCC(=O)O)C(=O)O)cc1)CN2 (stereo unspecified)
inactive: [13] 100 % of control | [10] 104 % of control and 118 % of control | dose: 100.0 mg/kg/injection, schedule: Q01DX009 (ip), vehicle: saline sonified 113 % of control | [11] 122 % of control

O=[N+]([O-])c1ccc(C(Cl)Cc2ccc(Cl)cc2)cc1 (stereo unspecified)
inactive: [1] 102 % of control | [2] 90 % of control | [3] 94 % of control

COC(=O)N1CCCc2cc3c(cc(OC)c(OC)c3c3[nH]c4ccccc4c23)CC1
inactive: dose: 50.0 mg/kg/injection, schedule: Q01DX005 (ip), vehicle: Klucel + Tween-80 100 % of control | dose: 100.0 mg/kg/injection, schedule: Q01DX005 (ip), vehicle: Klucel + Tween-80 95 % of control | dose: 200.0 mg/kg/injection, schedule: Q01DX005 (ip), vehicle: Klucel + Tween-80 91 % of control

CC(=O)Nc1cscc1NC(C)=O
inactive: [13] 101 % of control | [10] 94 % of control | [11] 100 % of control | dose: 200.0 mg/kg/injection, schedule: Q01DX009 (ip), vehicle: saline with Tween-80 101 % of control

CN(C)C1C(O)C2Oc3c(cc(O)c4c3C(=O)c3cc5c(c(O)c3C4=O)C(N=[N+]=N)CC(C)(O)C5)C(C)(O2)C1O (stereo unspecified)
inactive: dose: 0.31 mg/kg/injection, schedule: Q01DX009 (ip), vehicle: other 107 % of control | dose: 0.62 mg/kg/injection, schedule: Q01DX009 (ip), vehicle: other 107 % of control | dose: 1.25 mg/kg/injection, schedule: Q01DX009 (ip), vehicle: other 108 % of control | dose: 10.0 mg/kg/injection, schedule: Q01DX009 (ip), vehicle: other 120 % of control

COc1ccc(C(=O)CCC2(C)OCCO2)cc1OC
inactive: dose: 60.0 mg/kg/injection, schedule: Q01DX005 (ip), vehicle: Klucel (hydroxypropylcellulose) (HPC) 101 % of control | dose: 120.0 mg/kg/injection, schedule: Q01DX005 (ip), vehicle: Klucel (hydroxypropylcellulose) (HPC) 108 % of control | dose: 240.0 mg/kg/injection, schedule: Q01DX005 (ip), vehicle: Klucel (hydroxypropylcellulose) (HPC) 106 % of control
